Results published in patent US7439207B2, “2,6 substituted pyridine-3-carbonyl derivatives serving as plant protection agents having herbicidal action” (Bayer CropScience AG, priority 2002, dated 2008).

Assays:
weeds [1] = experiment: Pre-emergence test (Example A), activity against weeds; format: in vivo; details: soil sprayed 24 hours after sowing, rated after three weeks
Procedure: Pre-Emergence Test • Solvent: 5 parts by weight of acetone • Emulsifier: 1 part by weight of alkylaryl polyglycol ether
(§1) To produce a suitable preparation of active compound, 1 part by weight of active compound is mixed with the stated amount of solvent, the stated amount of emulsifier is added and the concentrate is diluted with water to the desired concentration.
Seeds of the test plants are sown in normal soil. After 24 hours, the soil is sprayed with the preparation of active compound such that the particular amount of active compound desired is supplied per unit area. The concentration of active compound in the spray liquor is chosen such that the particular amount of active compound desired is applied in 1000 litres of water per hectare.
After three weeks, the degree of damage to the plants is rated in % damage in comparison to the development of the untreated control. The figures denote: • 0%=no effect (like untreated control) • 100%=total destruction

weeds [2] = experiment: Post-emergence test (Example B), activity against weeds; format: in vivo; details: test plants of 5-15 cm sprayed, rated after three weeks
Procedure: Post-Emergence Test • Solvent: 5 parts by weight of acetone • Emulsifier: 1 part by weight of alkylaryl polyglycol ether
as §1
Test plants of a height of 5-15 cm are sprayed with the preparation of active compound such that the particular amounts of active compound desired are applied per unit area. The concentration of the spray liquor is chosen such that the particular amounts of active compound desired are applied in 1 000 1 l of water/ha.
After three weeks, the degree of damage to the plants is rated in % damage in comparison to development of the untreated control.
The figures denote: • 0%=no effect (like untreated control) • 100%=total destruction

[3] = logP determination by HPLC on reversed-phase column (C 18), EEC Directive 79/831 Annex V.A8; format: physicochemical; details: reversed-phase HPLC column (C 18); printed in text without mark a) or b)
Procedure: The logP values given in the table were determined in accordance with EEC Directive 79/831 Annex V.A8 by HPLC (High Performance Liquid Chromatography) using a reversed-phase column (C 18). Temperature: 43° C. (a) Mobile phases for the determination in the acidic range: 0.1% aqueous phosphoric acid, acetonitrile; linear gradient from 10% acetonitrile to 90% acetonitrile—corresponding measurement results in Table 1 are marked ^a). (b) Mobile phases for the determination in the neutral range: 0.01 molar aqueous phosphate buffer solution, acetonitrile; linear gradient from 10% acetonitrile to 90% acetonitrile—corresponding measurement results in Table 1 are marked ^b). Calibration was carried out using unbranched alkan-2-ones (having 3 to 16 carbon atoms) with known logP values (determination of the logP values by the retention times using linear interpolation between two successive alkanones).

chromatographic logP [3]	Structure (SMILES)	activity against weeds (weeds [1])	activity against weeds (weeds [2])
2.14	CN1CCN(Cc2nc(C(F)(F)F)ccc2C(=O)C2C(=O)CCCC2=O)C1=O [Example 1, 2-[2-(3-methyl-2-oxoimidazolidin-1-ylmethyl)-6-trifluoromethylpyridine-3-carbonyl]cyclohexane-1,3-dione]	strong activity	strong activity
1.62	CN1CCN(Cc2nc(C(F)(F)F)ccc2C(=O)O)C1=O [Example II-1, 6-trifluoromethyl-2-(3-methyl-2-oxoimidazolidin-1-ylmethyl)nicotinic acid]		
